Assay [1] can be described thus: Western blot analysis for "B" compounds. It is filed as cell-based. To be noted: read-out: Traditional Western Degradation Potency (DC50). An outline of the steps: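 Target protein levels given as relative mean band intensity over GAPDH from scanned immunoblots. Lysates of treated cells in RIPA buffer, equalized by BCA, separated on 10% gels and transferred to PVDF.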
On the technique in general: A western blot detects proteins with antibodies after separation by electrophoresis.

The nature of assay [2]: Cell growth assay (WST-8) for "B" compounds. It is filed as cell-based. To be noted: T47D cell line, read-out: Cell growth Inhibition in T47D cell line IC50. The procedure:
Cell Growth Assay. The cells were seeded at 1500/well in 96 well plates overnight. One day after the seeding, they were treated with indicated doses of compounds respectively, 4 days after the compound treatment, 10% WST-8 reagent was added to the culture medium and incubate in a CO2 incubator at 37° C. for 2.5 hours. Before reading, the plate was mixed gently on an orbital shaker for one minute to ensure homogeneous distribution of color. The absorbance was measured of each sample using a microplate reader at a wavelength of 450 nm. The relative absorbance was calculated against the vehicle control from three individually repeats.
(Formazan colour is commonly taken as a measure of viable cells.)

Drawing on US20260028354A1, “TETRAHYDRONAPHTHALENE DERIVATIVES AS ESTROGEN RECEPTOR DEGRADERS” (REGENT OF THE UNIVERSITY OF MICHIGAN, priority 2022, published 2026), this text covers DC50 and IC50 for 14 compounds.

Molecules are shown by their SMILES. Read-outs that look alike come from different tables or passages of the source. A value given as a limit tells only on which side of the number the result lay.

With `C[C@H]1CC2(CCN(c3ccc([C@@H]4c5ccc(O)cc5CC[C@@H]4c4ccccc4)cc3)CC2)CN1C(=O)CN1Cc2cc3c(cc2C1)C(=O)N(C1CCC(=O)NC1=O)C3=O` (mixture of isomers) [Compound B23, 2-(2,6-dioxopiperidin-3-yl)-6-(2-((S)-8-(4-((1R,2S)-6-hydroxy-2-phenyl-1,2,3,4-tetrahydronaphthalen-1-yl)phenyl)-3-methyl-2,8-diazaspiro[4.5]decan-2-yl)-2-oxoethyl)-6,7-dihydropyrrolo[3,4-f]isoindole-1,3(2H,5H)-dione], the 50% degradation concentration (DC50) (in general, the midpoint of the concentration-degradation curve) in assay [1] is 10 to 100 nM. Besides, in assay [2] (T47D), the IC50 (as a rule, the concentration needed to halve the response being measured) is more than 10 nM.

`C[C@H]1CC2(CCN(C(=O)CN3Cc4cc5c(cc4C3)C(=O)N(C3CCC(=O)NC3=O)C5=O)CC2)CN1c1ccc([C@@H]2c3ccc(O)cc3CC[C@@H]2c2ccccc2)cc1` (mixture of isomers) [Compound B24, 2-(2,6-dioxopiperidin-3-yl)-6-(2-((S)-2-(4-((1R,2S)-6-hydroxy-2-phenyl-1,2,3,4-tetrahydronaphthalen-1-yl)phenyl)-3-methyl-2,8-diazaspiro[4.5]decan-8-yl)-2-oxoethyl)-6,7-dihydropyrrolo[3,4-f]isoindole-1,3(2H,5H)-dione]: the half-maximal degradation concentration (DC50) in assay [1] was 10 to 100 nM. Besides, the half-inhibitory concentration (IC50) in assay [2] (T47D) was more than 10 nM.

Regarding `O=C1CCC(N2C(=O)c3cc4c(cc3C2=O)CN(CC(=O)N2CC3(CCN(c5ccc([C@@H]6c7ccc(O)cc7CC[C@@H]6c6ccccc6)cc5)CC3)C2)C4)C(=O)N1` (mixture of isomers) [Compound B5, 2-(2,6-dioxopiperidin-3-yl)-6-(2-(7-(4-((1R,2S)-6-hydroxy-2-phenyl-1,2,3,4-tetrahydronaphthalen-1-yl)phenyl)-2,7-diazaspiro[3.5]nonan-2-yl)-2-oxoethyl)-6,7-dihydropyrrolo[3,4-f]isoindole-1,3(2H,5H)-dione], the 50% degradation concentration (DC50) in assay [1] was less than 10 nM. In addition, the half-inhibitory concentration (IC50) in assay [2] is more than 10 nM.

Regarding `COc1c2c(cc3c1C(=O)N(C1CCC(=O)NC1=O)C3=O)CN(CC(=O)N1CCC3(CC1)CCN(c1ccc([C@@H]4c5ccc(O)cc5CC[C@@H]4c4ccccc4)cc1)CC3)C2` (stereo partly drawn) [Compound B136, 2-(2,6-dioxopiperidin-3-yl)-6-(2-(9-(4-((1R,2S)-6-hydroxy-2-phenyl-1,2,3,4-tetrahydronaphthalen-1-yl)phenyl)-3,9-diazaspiro[5.5]undecan-3-yl)-2-oxoethyl)-4-methoxy-6,7-dihydropyrrolo[3,4-f]isoindole-1,3(2H,5H)-dione], the DC50 in assay [1] was in the range of 10 to 100 nM. Further, the concentration for half-maximal inhibition (IC50) in assay [2] (T47D) lay in the range of 1 to 10 nM.

For `O=C1CCC(N2C(=O)c3cc4c(cc3C2=O)CN(CC(=O)N2CCC3(CC2)CCN(c2ccc([C@@H]5c6ccc(O)cc6CCC56CCCC6)cc2)CC3)C4)C(=O)N1` (stereo in doubt) [Compound B49, 2-(2,6-dioxopiperidin-3-yl)-6-(2-(9-(4-(6'-hydroxy-3',4'-dihydro-1'H-spiro[cyclopentane-1,2'-naphthalen]-1'-yl)phenyl)-3,9-diazaspiro[5.5]undecan-3-yl)-2-oxoethyl)-6,7-dihydropyrrolo[3,4-f]isoindole-1,3(2H,5H)-dione], the DC50 in assay [1] was 10 to 100 nM. In addition, the IC50 in assay [2] (T47D) lay in the range of 1 to 10 nM.

Regarding `O=C1CCC(N2C(=O)c3cc4c(cc3C2=O)CN(C(=O)C2CCN(CC3CCN(c5ccc([C@@H]6c7ccc(O)cc7CC[C@@H]6c6ccccc6)cc5)CC3)CC2)C4)C(=O)N1` (stereo partly drawn) [Compound B57, 2-(2,6-dioxopiperidin-3-yl)-6-(1-((1-(4-((1R,2S)-6-hydroxy-2-phenyl-1,2,3,4-tetrahydronaphthalen-1-yl)phenyl)piperidin-4-yl)methyl)piperidine-4-carbonyl)-6,7-dihydropyrrolo[3,4-f]isoindole-1,3(2H,5H)-dione], the DC50 in assay [1] is more than 100 nM. Moreover, the IC50 in assay [2] (T47D) was in the range of 1 to 10 nM.

`O=C1CCC(N2Cc3cc4c(cc3C2=O)OC[C@@H]2CN(CC3CCN(c5ccc([C@@H]6c7ccc(O)cc7CC[C@@H]6c6ccccc6)cc5)CC3)CCN42)C(=O)N1` (stereo partly drawn) [Compound B135, 3-((S)-3-((1-(4-((1R,2S)-6-hydroxy-2-phenyl-1,2,3,4-tetrahydronaphthalen-1-yl)phenyl)piperidin-4-yl)methyl)-8-oxo-1,2,3,4,4a,5,8,10-octahydro-9H-pyrazino[1′,2′:4,5][1,4]oxazino[2,3-f]isoindol-9-yl)piperidine-2,6-dione]: in assay [1], the DC50 was 10 to 100 nM. Besides, the half-maximal inhibitory concentration (IC50) in assay [2] (T47D) fell in the range of 1 to 10 nM.

`O=C1CCC(N2C(=O)c3cc4c(cc3C2=O)CN(CC(=O)N2CC3(CCN(c5ccc([C@@H]6c7ccc(O)cc7CC[C@@H]6c6ccccc6)cc5F)CC3)C2)C4)C(=O)N1` (mixture of isomers) [Compound B43, 2-(2,6-dioxopiperidin-3-yl)-6-(2-(7-(2-fluoro-4-((1R,2S)-6-hydroxy-2-phenyl-1,2,3,4-tetrahydronaphthalen-1-yl)phenyl)-2,7-diazaspiro[3.5]nonan-2-yl)-2-oxoethyl)-6,7-dihydropyrrolo[3,4-f]isoindole-1,3(2H,5H)-dione]: the DC50 in assay [1] is more than 100 nM. Besides, in assay [2] (T47D), the IC50 lay within 1 to 10 nM.

In the case of `O=C1CCC(N2C(=O)c3cc4c(cc3C2=O)CN(C2CCN(CC3CCN(c5ccc([C@@H]6c7ccc(O)cc7CC[C@@H]6c6ccccc6)cc5)CC3)CC2)C4)C(=O)N1` (stereo partly drawn) [Compound B64, 2-(2,6-dioxopiperidin-3-yl)-6-(1-((1-(4-((1R,2S)-6-hydroxy-2-phenyl-1,2,3,4-tctrahydronaphthalcn-1-yl)phenyl)pipcridin-4-yl)methyl)piperidin-4-yl)-6,7-dihydropyrrolo[3,4-f]isoindole-1,3(2H,5H)-dione], the DC50 in assay [1] was less than 10 nM. In assay [2] (T47D), the IC50 lay in the range of 1 to 10 nM.

Regarding `C[C@H]1CC2(CCN(c3ccc([C@@H]4c5ccc(O)cc5CC[C@@H]4c4ccccc4)cc3)CC2)CN1CC(=O)N1Cc2cc3c(cc2C1)C(=O)N(C1CCC(=O)NC1=O)C3=O` (mixture of isomers) [Compound B30, 2-(2,6-dioxopiperidin-3-yl)-6-(2-((S)-8-(4-((1R,2S)-6-hydroxy-2-phenyl-1,2,3,4-tetrahydronaphthalen-1-yl)phenyl)-3-methyl-2,8-diazaspiro[4.5]decan-2-yl)acetyl)-6,7-dihydropyrrolo[3,4-f]isoindole-1,3(2H,5H)-dione], the DC50 in assay [1] is more than 100 nM. Moreover, the IC50 in assay [2] (T47D) is more than 10 nM.

With `O=C1CCC(N2C(=O)c3cc4c(cc3C2=O)CCN(CC(=O)N2CCC3(CC2)CCN(c2ccc([C@@H]5c6ccc(O)cc6CC[C@@H]5c5ccc(F)cc5)cc2)CC3)CC4)C(=O)N1` (stereo partly drawn) [Compound B52, 2-(2,6-dioxopiperidin-3-yl)-7-(2-(9-(4-((1R,2S)-2-(4-fluorophenyl)-6-hydroxy-1,2,3,4-tetrahydronaphthalen-1-yl)phenyl)-3,9-diazaspiro[5.5]undecan-3-yl)-2-oxoethyl)-6,7,8,9-tetrahydroazepino[4,5-f]isoindole-1,3(2H,5H)-dione], the DC50 in assay [1] was more than 100 nM. The 50% inhibitory concentration (IC50) in assay [2] (T47D) was in the range of 1 to 10 nM.

`O=C1CCC(N2C(=O)c3cc4c(cc3C2=O)CN(CC(=O)N2CCC3(CC2)CCN(c2ccc([C@@H]5c6ccc(O)cc6CC[C@@H]5C5CCCCC5)cc2)CC3)C4)C(=O)N1` (mixture of isomers) [Compound B47, 6-(2-(9-(4-((1R,2R)-2-cyclohexyl-6-hydroxy-1,2,3,4-tetrahydronaphthalen-1-yl)phenyl)-3,9-diazaspiro[5.5]undecan-3-yl)-2-oxoethyl)-2-(2,6-dioxopiperidin-3-yl)-6,7-dihydropyrrolo[3,4-f]isoindole-1,3(2H,5H)-dione]: the DC50 in assay [1] lay in the range of 10 to 100 nM. Besides, in assay [2] (T47D), the IC50 lay in the range of 1 to 10 nM.

With `O=C1CCC(N2C(=O)c3cc4c(cc3C2=O)CN(CC2CCN(C(=O)C3CCN(c5ccc([C@@H]6c7ccc(O)cc7CC[C@@H]6c6ccccc6)cc5)CC3)CC2)C4)C(=O)N1` (stereo partly drawn) [Compound B56, 2-(2,6-dioxopiperidin-3-yl)-6-((1-(1-(4-((1R,2S)-6-hydroxy-2-phenyl-1,2,3,4-tetrahydronaphthalen-1-yl)phenyl)piperidine-4-carbonyl)piperidin-4-yl)methyl)-6,7-dihydropyrrolo[3,4-f]isoindole-1,3(2H,5H)-dione], the 50% degradation concentration (DC50) in assay [1] lay in the range of 10 to 100 nM. Further, the concentration for half-maximal inhibition (IC50) in assay [2] (T47D) is 1 to 10 nM.

As for `O=C1CCC(N2C(=O)c3cc4c(cc3C2=O)CN(CC(=O)N2CCC3(CC2)CCN(c2cc(F)c([C@@H]5c6ccc(O)cc6CC[C@@H]5c5ccccc5)c(F)c2)CC3)C4)C(=O)N1` (mixture of isomers) [Compound B46, 6-(2-(9-(3,5-difluoro-4-((1S,2S)-6-hydroxy-2-phenyl-1,2,3,4-tetrahydronaphthalen-1-yl)phenyl)-3,9-diazaspiro[5.5]undecan-3-yl)-2-oxoethyl)-2-(2,6-dioxopiperidin-3-yl)-6,7-dihydropyrrolo[3,4-f]isoindole-1,3(2H,5H)-dione], in assay [1], the 50% degradation concentration (DC50) was more than 100 nM. Further, the concentration for half-maximal inhibition (IC50) in assay [2] (T47D) was more than 10 nM.
